Experimental data published in patent publication US20230381275A1, “MUSCULAR FUNCTION IMPROVING AGENT FOR SKELETAL MUSCLE OF WHICH FUNCTION IS DEGRADED DUE TO AGING” (OSAKA UNIVERSITY, priority 2020, published 2023).

Legend:
[1] = tested on: aging-accelerated model mice; test: Endurance evaluation test on treadmill (Example 5); assay type: in vivo; conditions: SV group
Procedure: In this example, the training schedule and SV peptide administration concentration were changed from Example 4, and exercise evaluation (endurance evaluation) was conducted in aging-accelerated model mice when SV peptide was continuously administered. In addition, the cross-sectional area of muscle fibers (gastrocnemius (type I, type IIa, type IIb), extensor digitorum longus, and tibialis anterior muscles) were evaluated in mice that continued training and SV peptide administration until 51 weeks of age.
Aging-accelerated model mice were trained on a treadmill (MK-680; Muromachi Kikai Co., Ltd.) (18 m/min×90 min) and subsequent SV peptide administration was performed according to the schedule in the following table. 30 weeks of age and thereafter, training was performed continuously from Monday to Friday of each week. SV peptide was added to PBS to adjust to a concentration of 1 μg/ml for an injection formulation and localized to the bilateral leg muscles of each mouse anesthetized by inhalation with sevoflurane immediately after training on Tuesday and Friday (SV group; twice weekly administration). Exercise evaluations were performed every other Friday.
Exercise evaluation was performed by endurance assessment, in which the belt speed on the treadmill was increased stepwise at regular intervals. The elapsed time and belt speed increase used for the endurance evaluation test were the same as in Example 4. In the PBS group as a control group, PBS was injected into the bilateral leg muscles instead of SV peptide after training on the treadmill in the same manner as in the SV group.
The results of the endurance evaluation test are shown in FIG. 7 as a graph showing the difference between the mean running distance on the reference date (30 weeks of age) and the mean running distance in each test.
The results of the endurance evaluation test are also shown in FIG. 8 as a graph showing the difference between the mean speed on the reference day and the mean speed on each test day. The mean speed for each group was calculated as the mean of the highest speeds reached by each mouse in each group (mean speeds were calculated in the same manner hereinafter).

[2] = tested on: aging-accelerated model mice; test: Endurance evaluation test on treadmill (Example 7); assay type: in vivo
Procedure: In this example, the number of SV peptide doses and dosage in Example 4 were changed as shown in the following table, and exercise evaluation (endurance evaluation) was performed when SV peptide was continuously administered to aging-accelerated model mice. The conditions other than the number of SV peptide doses and dosage were the same as in Example 4.
Specifically, SV peptide was added to PBS to adjust to a concentration of 20 μg/ml for the injectable formulation, and localized to the bilateral lower limb muscles of each mouse anesthetized by inhalation with sevoflurane immediately after training once every 4 weeks (Friday) (SV group; once every 4 weeks).
The results of the endurance evaluation test are shown in FIG. 14 with a graph showing the mean running distance for the SV group (n=6) and the PBS group (n=6). In addition, graphs showing the difference between the mean running distance on the reference date (30 weeks of age) and the mean running distance in each test are shown in FIGS. 15 and 16. […] In FIG. 16, the sum of the absolute difference in mean running distance relative to the reference date in the SV group and the absolute difference in mean running distance relative to the reference date in the PBS group is shown as the SV treatment effect.
The change over time in the mean maximum speed in each group is shown in FIG. 17, and graphs showing the difference between the mean maximum speed on the reference date and the mean maximum speed on each test date are shown in FIGS. 18 and 19. […] In FIG. 19, the sum of the absolute difference in mean running distance relative to the reference date in the SV group and the absolute difference in mean running distance relative to the reference date in the PBS group is shown as the SV treatment effect. The treatment effect of more than 0.15 m/sec was confirmed at 34 and 39-41 weeks.

[3] = tested on: aging-accelerated model mice (SAMP10); test: Endurance evaluation test on treadmill, mean running distance (Example 4); assay type: in vivo
Procedure: In this example, we evaluated exercise in aging-accelerated model mice when SV peptide was administered continuously.
(§1) Aging-accelerated model mice (SAMP10 28 weeks old) were trained on a treadmill (MK-680; Muromachi Kikai Co., Ltd.) (18 m/min×90 min) and subsequent SV peptide administration was performed according to the schedule in the following table. After 30 weeks of age, training was performed continuously from Monday to Friday of each week. SV peptides were added to PBS to adjust to a concentration of 1 μg/ml or 20 ng/ml for injection formulation. Localized injections were made into the bilateral leg muscles of each mouse anesthetized by inhalation with sevoflurane immediately after training on Tuesday and Friday (SV group). Exercise evaluations were performed after SV peptide localization on Friday.
Exercise evaluations were conducted for endurance evaluation, in which the belt speed on the treadmill was increased incrementally at regular intervals, and for slope-up evaluation, in which the belt incline was increased incrementally at regular intervals. […] In the PBS group as the control group, PBS was localized to the bilateral lower limb muscles instead of SV peptide after training on the treadmill in the same manner as in the SV group.
The results of the endurance evaluation test are shown in FIG. 5 as a graph of the percent change in mean running distance. […] The mean running distance for each group was calculated as the mean value of running distance calculated based on the running time and speed of each mouse in each group (the mean distance was calculated in the same manner hereinafter). […] In the SVN group (SVN group) in which SV peptide was administered at the same site and at the same dose as in the SV group without training on the treadmill, the rate of change in mean running distance was measured.

[4] = tested on: aging-accelerated model mice (SAMP10); test: Exercise evaluation on treadmill, mean workload (Example 4); assay type: in vivo; conditions: SV-treated group (training and SV peptide) relative to PBS group; FIG. 6
Procedure: as §1
Exercise evaluations were conducted for endurance evaluation, in which the belt speed on the treadmill was increased incrementally at regular intervals, and for slope-up evaluation, in which the belt incline was increased incrementally at regular intervals. […]
The mean workload was calculated as the mean value of workload calculated by multiplying body weight, running time, slope (grade), running speed, and gravitational acceleration g(9.8 m/s^2) for each mouse in each group by […].

fibroblasts [5] = conditions: Non-Patent Documents 5, 6, Patent Documents 1-4; cited from earlier work
[6] = relative to SVVYGLR (SEQ ID NO.: 1); earlier work of the inventors; cited from earlier work
fibroblasts [7] = conditions: see Patent Document 1; cited from earlier work

SVVYGLR [SV peptide, peptide consisting of 7 amino acids (SVVYGLR]
decrease in the mean running distance during the test period ([1]; 1 μg/ml twice weekly plus training, relative to the PBS group, FIG. 7): able to suppress the decrease in the mean running distance
decrease in mean speed during the test period ([1]; 1 μg/ml twice weekly plus training, relative to the PBS group, FIG. 8): able to suppress the decrease in mean speed
mean speed (mean of highest speeds reached) relative to reference day ([1]; 1 μg/ml twice weekly plus training, test from 31 to 39 weeks of age, FIG. 8): increased continuously
mean running distance relative to the reference date (30 weeks of age) ([1]; SV peptide 1 μg/ml twice weekly plus training, tests at 31 to 41 weeks of age, FIG. 7): increased from the reference date
SV treatment effect (sum of absolute differences relative to the reference date of SV group and PBS group) ([2]; FIG. 19, at 34 and 39-41 weeks, SV peptide 20 μg/ml once every 4 weeks plus training): more than 0.15 m/sec
mean maximum speed ([2]; SV group, 20 μg/ml once every 4 weeks plus training, at 41 weeks of age vs 30 weeks of age): same mean maximum speed at 41 weeks of age as at 30 weeks of age
decrease in the mean maximum speed during the test period ([2]; SV group, 20 μg/ml once every 4 weeks plus training, compared to the PBS group): able to suppress the decrease in the mean maximum speed
mean speed (mean maximum speed) ([2]; SV group, 20 μg/ml once every 4 weeks plus training, test from 31 to 36 weeks of age, FIG. 17): continuous increase
mean running distance ([2]; SV group, SV peptide 20 μg/ml once every 4 weeks plus training, at 41 weeks of age vs 30 weeks of age): exceeded that of 30 weeks of age
mean running distance ([2]; SV group, SV peptide 20 μg/ml once every 4 weeks plus training, from 31 to 36 weeks of age, FIGS. 14-16): increased significantly
mean running distance compared to the reference date ([3]; SV group (training and SV peptide), during the measurement period, reference date 30 weeks): increased compared to that at the reference date
rate of change of the mean running distance ([3]; SV group (training performed and SV peptide injected, 1 μg/ml or 20 ng/ml, 2 times/W), mean running distance at 30 weeks (reference date) = 100%, FIG. 5): about 130%
mean running distance over time ([3]; SVN group: SV peptide at same site and dose without training on the treadmill, not shown in the figure): decreased over time
rate of change in mean running distance ([3]; SVN group: SV peptide without training on the treadmill, since the reference date (30 weeks = 100%)): ≤ 100%
mean workload [4]: higher workload relative to the PBS group
differentiation of fibroblasts to myofibroblasts (fibroblasts [5]): promoting
angiogenic effect [6]: promoting angiogenesis
type III collagen production-promoting effect / type III collagen secretion (fibroblasts [7]): promoting
